# Results reported in ChEMBL document CHEMBL3507680, “University of Dundee, Gates Library screen for HepG2 cell viability”.
# Test: Human HepG2 cell viability assay in 384 well format
# Type: toxicity, cell-based
# Set-up: dose 125 nL, time 70.5 hour; cytotoxicity at 70.5 h: concentration not given beside the values
# Details: HepG2 cells, read-out: Inhibition
row,Structure (SMILES),cytotoxicity at 70.5 h [%]
1,O=C(NCCCN1CCc2ccccc2C1)c1ccccc1Br,-7.72
2,CCC(C#N)NC(=O)c1cc(Br)c2c(c1)OCCO2 (configuration not stated),-9.18
3,CNc1snc(C)c1C(=O)N1CCCC(n2ccnc2C)C1 (configuration not stated),-4.48
4,OC(CNCCn1cccn1)c1ccc(Br)cc1 (configuration not stated),15.8
5,Cc1cn2c(n1)CCC(NC(=O)c1cc(C3CC3)[nH]n1)C2 (configuration not stated),-4.74
6,Cc1nc(C2CCCN2Cc2cc(=O)n(C)c(=O)n2C)no1 (configuration not stated),-1.72
7,Cc1nccc(C(=O)N2CCCC2c2c(C)nn(C)c2C)n1 (configuration not stated),16.2
8,Cc1cccc(-c2nc(CN3CCCC3Cn3cc(C)cn3)no2)c1 (configuration not stated),6.59
9,Cc1cnn(CC2CCCN2Cc2noc(C)n2)c1 (configuration not stated),-9.78
10,CN(C)CC1CN(Cc2coc(-c3cccc(F)c3)n2)CCO1 (configuration not stated),3.34
11,COC(=O)CC(NC(=O)c1ccccc1OC)c1cccs1 (configuration not stated),5.97
12,COc1ccc(Cl)cc1C(=O)NC(CC(=O)O)c1cccs1 (configuration not stated),-11
13,COc1ccc(Br)c(C(=O)NC(CC(=O)O)c2cccs2)c1 (configuration not stated),-11.5
14,Cc1ccc(C(=O)NCc2ccc(N3CCCC(C(N)=O)C3)cc2)o1 (configuration not stated),-14.6
15,CCOc1ccccc1C(=O)NC(CC(=O)O)c1cccs1 (configuration not stated),-6.28
16,COc1ccc(C)cc1C(=O)NC(CC(=O)O)c1cccs1 (configuration not stated),-11.4
17,Cc1cnn(C2CCCN(C(=O)c3cc(Cl)c4c(c3)OCO4)C2)c1 (configuration not stated),7.73
18,O=C(c1ccc2c(c1)OCCCO2)N1CCCC(n2ccnc2)C1 (configuration not stated),-8.38
19,CN(C)CC1CN(Cc2coc(-c3ccc(Cl)cc3)n2)CCO1 (configuration not stated),12.9
20,COc1cc(C(=O)NC(CC(=O)O)c2cccs2)cc(OC)c1C (configuration not stated),-6.87
21,COCCc1noc(CN2CCCC2c2c(C)nn(C)c2OC)n1 (configuration not stated),-3.49
22,CCn1cnnc1CNC(=O)N1CCC(O)CC1,-5.8
23,Cn1ccnc1CN1CCCN(C(=O)COCC2CC2)CC1,-3.74
24,O=C(CN1CCN(C(=O)c2sccc2C2CC2)CC1)NC1CC1,8.72
25,Cc1nc(C)n(CC2CCCN2Cc2nc3ccccc3o2)n1 (configuration not stated),-5.98
26,CC(OCC1CC1)C(=O)N1CCCN(Cc2nccn2C(C)C)CC1 (configuration not stated),-5.25

row,Structure (SMILES),cytotoxicity at 70.5 h [%]
1,Cn1ccnc1CN1CCCN(C(=O)CC(C2CC2)C2CC2)CC1,0.914
2,Cc1cnn(CC2CCCN2CC(=O)NC2CCN(C3CC3)CC2)c1 (configuration not stated),-3.72
3,Cc1nc(C2CCCN(C(=O)c3cccc4c3OCO4)C2)sc1C (configuration not stated),-2.18
4,Cc1csc(C2CCCN(C(=O)c3cccc4c3OCO4)C2)n1 (configuration not stated),-4.7
5,CC(C)c1nc(C2CCCN(C(=O)c3cccc4c3OCO4)C2)no1 (configuration not stated),-1.62
6,COCCn1cc(NC(=O)NC(C)Cc2c(F)cccc2F)cn1 (configuration not stated),12.3
7,Cc1cc(NC(=O)NCc2cccnc2OC2CCCC2)n(C)n1,-2.74
8,COc1ncccc1CNC(=O)Nc1cc(C)nn1C,-7.29
9,Cc1cccnc1NC(=O)NCc1cccnc1OC(C)C,-6.17
10,CC(C)(C)n1cc(C(=O)N2CCN(Cc3ccsc3)CC2)cn1,-0.132
11,CC(C)c1ccc(OCCC(=O)N2CCC(CC(N)=O)CC2)cc1,-3.31
12,CC1CN(C(=O)NCCCn2cncn2)CCO1 (configuration not stated),-1.85
13,CCc1nnc2n1CCN(CC(=O)Nc1cc(C(C)(C)C)nn1C)C2,0.0813
14,O=C(Nc1cnn(CCN2CCOCC2)c1)c1cc(F)ccc1F,-2.44
15,Cc1nn(CC(=O)N2CCC(Nc3cccnn3)CC2)c(C)c1Cl,28.5
16,CS(=O)(=O)N1CCCCCC1C1CCN(c2ncccn2)CC1 (configuration not stated),15.3
17,Cc1cnn(CCNCc2csc(-c3cccs3)n2)c1,-4.79
18,Cc1nn(C)c(C)c1CC(=O)N1CCC(Nc2cccnn2)CC1,35.9
19,CCCSCC(=O)NS(=O)(=O)c1ccc2c(c1)OCCO2,2.12
20,O=C(CSc1ccccc1Cl)NS(=O)(=O)c1ccc2c(c1)OCCO2,-4.84
21,CCn1c(CN2CCC(O)(C(=O)OC)CC2)nc2c(F)cccc21,31.2
22,OC(CN1CCCCCCC1)c1ccc(F)cc1 (configuration not stated),3.53
23,Cc1cc2n(n1)CC(CNCc1ccnc(-n3ccnc3C)c1)CN2 (configuration not stated),0.264
24,Cc1nc(C2CCCN2C(=O)c2cnns2)no1 (configuration not stated),-8.38
25,CCn1ccnc1CN1CCN(CCOc2cccc(C#N)c2)CC1,-5.28
26,Cc1cnn(CCNCc2nc(-c3ccccc3Cl)no2)c1,31.1

row,Structure (SMILES),cytotoxicity at 70.5 h [%]
1,Cc1cc(CN2CCN(C(=O)Nc3cccnc3)CC2)on1,-7.67
2,CC(NC(=O)N(C)Cc1ccsc1)c1ccc2c(c1)CCC(=O)N2 (configuration not stated),-3.94
3,Cc1cc(CN2CCN(C(=O)NC(C)c3cccnc3)CC2)on1 (configuration not stated),-11.7
4,CC(NC(=O)N1CCCN(Cc2cccs2)CC1)c1cccnc1 (configuration not stated),-16.5
5,Cc1nc(CNCc2c(C)nn(C)c2N2CCOCC2)cs1,-15.5
6,CC(NC(=O)N(C)Cc1ccsc1)c1ccc2c(c1)NC(=O)CO2 (configuration not stated),-9.52
7,Cc1noc(C)c1CNC(=O)N1CCN(Cc2cscn2)CC1,-5.24
8,CCOc1ccccc1C(CC(=O)Nc1ccccc1F)NC(C)=O (configuration not stated),-6.84
9,Cc1cc(CNCc2c(C)nn(C)c2N2CCOCC2)no1,-4.07
10,CNS(=O)(=O)c1ccc(C(=O)N2CCCC(n3cccn3)C2)cc1 (configuration not stated),-8.29
11,CCOC(=O)CN1CCC(C(=O)c2cc(F)ccc2F)CC1,34.9
12,Cc1nc(C)n(CC2CCCN2Cc2nc(-c3cccs3)no2)n1 (configuration not stated),-12.2
13,Cc1cnn(CCNCc2nc(Cc3ccccc3)no2)c1,-5.53
14,Cc1cc(C)n(CC2CCCN2C(=O)CCCNc2ncccn2)n1 (configuration not stated),-0.613
15,COc1cc(CNC(=O)NCc2c(C)cc(C)[nH]c2=O)ccc1C,-8.93
16,Cc1nc(C2CCCN(C(=O)Cn3ccccc3=O)C2)no1 (configuration not stated),-9.54
17,Cc1cc(C)n(CC2CCCN2C(=O)CCc2cscn2)n1 (configuration not stated),-8.27
18,Cc1nc(C)n(CC2CCCN2Cc2nc(C3CC3)no2)n1 (configuration not stated),-5.43
19,COCCN1CCN(Cc2noc(C3CC3)n2)CC1C (configuration not stated),12.5
20,Cc1cccc(OCCC(=O)N2CCN(S(=O)(=O)N(C)C)CC2)c1C,20.1
21,O=C(NCCc1ccccn1)C1=NN(c2ccccc2)C(=O)CN1,-6.71
22,CC(C)c1noc(CCCC(=O)N2CCN(Cc3ccncc3)CC2)n1,-17.6
23,Cn1cc(NS(=O)(=O)c2ccc(OC(F)(F)F)cc2)ccc1=O,18
24,Cn1ncc2c(=O)[nH]c(CN3CCCC3c3cccs3)nc21 (configuration not stated),-10.3
25,OC(COCc1ccc(Cl)cc1)CN1CCC(c2ccn[nH]2)CC1 (configuration not stated),-1.37
26,COCCNc1ccc(CNC(=O)Nc2cn[nH]c2)cc1,-16.6

row,Structure (SMILES),cytotoxicity at 70.5 h [%]
1,OC(COc1ccccc1)CN1CCC(c2ccn[nH]2)CC1 (configuration not stated),-13.1
2,CCn1cnnc1C1CCN(C(=O)c2ccc(Cl)s2)CC1,-15
3,CCn1cnnc1C1CCN(C(=O)c2cc3c(s2)CCC3)CC1,-12.3
4,Cc1cccc(OCCC(=O)N2CCCN(C(N)=O)CC2)c1C,15.3
5,Cc1noc(C)c1CN1CCN(Cc2nccn2C)C(C)C1 (configuration not stated),-11.9
6,Cc1cccc(OCCC(=O)N2CCCN(CC(N)=O)CC2)c1C,-12
7,Cc1cnn(CCNCC(O)COc2ccc(C#N)cc2)c1 (configuration not stated),-5.86
8,CCc1nnc2n1CCN(C(=O)c1ccc(-c3ccco3)nc1C)C2,10
9,CN(C)c1cc2c(nn1)CCN(C(=O)C1CCc3ccccc31)C2 (configuration not stated),13.5
10,CN(C)c1cc2c(nn1)CCN(C(=O)C1Cc3ccccc3S1)C2 (configuration not stated),-8.43
11,COc1ccc(CNC(=O)N(Cc2ccc(F)cc2F)C2CC2)cn1,18.5
12,COc1ccc2c(c1)CN(Cc1nc3ccsc3c(=O)[nH]1)CC2,5.83
13,Cc1cnn(CCNCC(O)COc2ccc(Cl)cc2)c1 (configuration not stated),2.45
14,CC1CN(Cc2noc(C3CC3)n2)CCN1Cc1nccn1C (configuration not stated),4.66
15,CCc1noc(CN2CCCN(C(N)=O)CC2)n1,-12
16,CCc1nc(CN2CCCC(NCc3cnn(C(C)(C)C)c3)C2)no1 (configuration not stated),-12.7
17,CC(C)OCCCNC(=O)CN1CCC(N2CCN(C)C2=O)CC1,-18.5
18,COCCc1noc(CN(C)C(=O)c2cccc(N3CCCC3=O)c2)n1,-17
19,CCc1nc(CN2CCCC(NCc3ccc(C(N)=O)cc3)C2)no1 (configuration not stated),-10.1
20,Cc1cnc(CN2CCOC(Cn3nc(C)nc3C)C2)cn1 (configuration not stated),18.6
21,O=C1CC(N(C(=O)c2ccc3[nH]c4c(c3c2)CCCC4)C2CC2)C(=O)N1 (configuration not stated),39.1
22,Clc1snnc1CN1CCCC(Cn2cncn2)C1 (configuration not stated),14.5
23,CN(Cc1ccsc1)C(=O)Nc1ccc(S(=O)(=O)N(C)C)cc1,3.55
24,Cc1cnc(CN(C)C2CCN(CC(=O)Nc3nncs3)C2)o1 (configuration not stated),17.3
